In brackets after ≈: the same amount, converted by molar mass. Where two headings read alike, the source gives them in different places.
Experiments:
[1] = system: Schistosoma mansoni adult worms (49-day-old); assay: Effect on adult schistosomes (49-day-old) in infected mice; format: in vivo; conditions: for % reduction of adult worms growth at day 49 after per os application of 400 mg/kg, TWR (%) / Adult worms day 49, per os 400 mg/kg, DEAD WORM (%): single 400 mg/kg per os
Procedure: Mice were infected with 100 Schistosoma mansoni cercariae on day 49 post-treatment. Each group was treated per os with OZ compounds at single doses of 200, 400, and 600 mg/kg. Untreated mice served as the control. All groups were killed 4 weeks after treatment and the liver and intestine were removed and separated. The liver and intestine were compressed and alive male and female worms could be seen and counted.

[2] = system: chloroquine-resistant K1 strain of P. falciparum; assay: In vitro antimalarial semiautomated microdilution assay ([3H]-hypoxanthine incorporation), K1 strain; format: cell-based, Plasmodium falciparum; conditions: Plasmodium falciparum
Method in brief: (§1)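 Asynchronous stock-culture parasites (intraerythrocytic forms), serial compound dilutions; readout [3H]-hypoxanthine uptake; IC50 via Logit regression.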

[3] = system: chloroquine-sensitive NF54 strain of P. falciparum; assay: In vitro antimalarial semiautomated microdilution assay ([3H]-hypoxanthine incorporation), NF54 strain; format: cell-based, Plasmodium falciparum; conditions: Plasmodium falciparum
Method in brief: as §1

[4] = system: ANKA strain of P. berghei; assay: Single dose STI in vivo screen in infected mice; design: species or system Plasmodium berghei; conditions: for Survival (days) 3 mg/kg SSV po / Activity (%) 3 mg/kg SSV po: single 3 mg/kg po in SSV; for Survival (days) 10 mg/kg SSV po: single 10 mg/kg po in SSV; for Survival (days) 10 mg/kg SSV po / Survival (days) 10 mg/kg po / Survival (days) 10 mg/kg sc: untreated 6-7 days; for Survival (days) 10 mg/kg po: single 10 mg/kg po in 3% ethanol and 7% Tween 80; for Survival (days) 10 mg/kg sc: single 10 mg/kg sc in 3% ethanol and 7% Tween 80
[5] = 49-day-old adults, total worm reduction rate
[6] = percentage of dead worm in the liver
[7] = chloroquine-resistant K1 strain, 72 h incubation, read-out: IC50 (ng/ml) K1
[8] = chloroquine-sensitive NF54 strain, 72 h incubation, read-out: IC50 (ng/ml) NF54
[9] = percent reduction in parasitemia on day 3
[10] = single 10 mg/kg po in standard suspending vehicle (SSV) on day 1 post-infection, percent reduction in parasitemia on day 3
[11] = single 10 mg/kg po in 3% ethanol and 7% Tween 80 on day 1 post-infection, percent reduction in parasitemia on day 3
[12] = single 10 mg/kg sc in 3% ethanol and 7% Tween 80 on day 1 post-infection, percent reduction in parasitemia on day 3

**Q.** Which “% reduction of adult worms growth at day 49 after per os application of 400 mg/kg, TWR (%)” value [1, 5] does the source give for `CCOC(=O)CC1CCC2(CC1)OOC1(O2)C2CC3CC(C2)CC1C3` (centres unmarked) [OZ61] here?
**A.** 8%

**Q.** And the “Adult worms day 49, per os 400 mg/kg, DEAD WORM (%)” value [1, 6]?
**A.** 21%

**Q.** Which results are given for `O=S1(=O)CCC2(CC1)OOC1(O2)C2CC3CC(C2)CC1C3` (centres unmarked) [OZ50]?
**A.** % reduction of adult worms growth at day 49 after per os application of 400 mg/kg, TWR (%) [1, 5]: 12%; Adult worms day 49, per os 400 mg/kg, DEAD WORM (%) [1, 6]: 4%

**Q.** Which “% reduction of adult worms growth at day 49 after per os application of 400 mg/kg, TWR (%)” value [1, 5] does the source give for `O=C(C1CCCCC1)N1CC(=O)N2CCc3ccccc3C2C1` (centres unmarked) [PRAZIQUANTEL, praziquantel, reference compound] here?
**A.** 93%

**Q.** What about the “Adult worms day 49, per os 400 mg/kg, DEAD WORM (%)” value [1, 6] of the same compound?
**A.** 89%

**Q.** And the “% reduction of adult worms growth at day 49 after per os application of 600 mg/kg, TWR (%)” value ([1]; single 600 mg/kg per os, 49-day-old adults, total worm reduction rate)?
**A.** 100/100%

**Q.** And the “Adult worms day 49, per os 600 mg/kg, DEAD WORM (%)” value ([1]; single 600 mg/kg per os, percentage of dead worm in the liver)?
**A.** 100/100%

**Q.** Which “% reduction of adult worms growth at day 49 after per os application of 400 mg/kg, TWR (%)” value [1, 5] does the source give for `c1ccc(C2(c3ccccn3)OOC3(O2)C2CC4CC(C2)CC3C4)nc1` (centres unmarked) [OZ81] here?
**A.** 28%

**Q.** What about the “Adult worms day 49, per os 400 mg/kg, DEAD WORM (%)” value [1, 6] of the same compound?
**A.** 0%

**Q.** How did the “% reduction of adult worms growth at day 49 after per os application of 400 mg/kg, TWR (%)” value [1, 5] turn out when `O=C(CO)N1CCC2(CC1)OOC1(O2)C2CC3CC(C2)CC1C3` (centres unmarked) [OZ83] was run?
**A.** 7%

**Q.** What about the “Adult worms day 49, per os 400 mg/kg, DEAD WORM (%)” value [1, 6] of the same compound?
**A.** 19%

**Q.** `O=C1CN(C(=O)C[C@H]2CC[C@]3(CC2)OO[C@]2(O3)C3CC4CC(C3)CC2C4)CCN1` [OZ296] was tested. Which IC50 [2, 7] did it give?
**A.** 0.6 ng/mL (≈ 1.48 nM)

**Q.** And the IC50 [3, 8]?
**A.** 0.89 ng/mL (≈ 2.2 nM)

**Q.** What about the “Survival (days) 3 mg/kg SSV po” value [4] of the same compound?
**A.** 9.2 days

**Q.** What about the “Activity (%) 3 mg/kg SSV po” value [4, 9] of the same compound?
**A.** 90%

**Q.** And the “Survival (days) 10 mg/kg SSV po” value [4]?
**A.** 10.0 days

**Q.** And the “Activity (%) 10 mg/kg SSV po” value [4, 10]?
**A.** 99.22%

**Q.** `CN1CCN(C(=O)NC[C@H]2CC[C@]3(CC2)OOC2(O3)C3CC4CC(C3)CC2C4)CC1` (some centres unmarked) [OZ267] was tested. Which IC50 [2, 7] did it give?
**A.** 0.2 ng/mL (≈ 0.477 nM)

**Q.** And the IC50 [3, 8]?
**A.** 0.34 ng/mL (≈ 0.81 nM)

**Q.** And the “Survival (days) 10 mg/kg po” value [4]?
**A.** 8.3 days

**Q.** What about the “Activity (%) 10 mg/kg po” value [4, 11] of the same compound?
**A.** 99.92%

**Q.** And the “Survival (days) 10 mg/kg SSV po” value [4]?
**A.** 8.7 days

**Q.** What about the “Activity (%) 10 mg/kg SSV po” value [4, 10] of the same compound?
**A.** 99.89%

**Q.** What about the “Survival (days) 10 mg/kg sc” value [4] of the same compound?
**A.** 9.3 days

**Q.** What about the “Activity (%) 10 mg/kg sc” value [4, 12] of the same compound?
**A.** 99.97%

**Q.** `CC(=O)OC[C@H]1CC[C@]2(CC1)OOC1(O2)C2CC3CC(C2)CC1C3` (some centres unmarked) [OZ118] was tested. Which IC50 [2, 7] did it give?
**A.** 1 ng/mL (≈ 2.97 nM)

**Q.** What about the IC50 [3, 8] of the same compound?
**A.** 0.24 ng/mL (≈ 0.713 nM)

**Q.** And the “Survival (days) 10 mg/kg po” value [4]?
**A.** 7.0 days

**Q.** And the “Activity (%) 10 mg/kg po” value [4, 11]?
**A.** 99.0%

**Q.** What about the “Survival (days) 10 mg/kg SSV po” value [4] of the same compound?
**A.** 8.0 days

**Q.** And the “Activity (%) 10 mg/kg SSV po” value [4, 10]?
**A.** 98%

**Q.** What about the “Survival (days) 10 mg/kg sc” value [4] of the same compound?
**A.** 8.3 days

**Q.** And the “Activity (%) 10 mg/kg sc” value [4, 12]?
**A.** 99.57%

**Q.** How did the IC50 [2, 7] turn out when `Oc1ccc([C@H]2CC[C@]3(CC2)OOC2(O3)C3CC4CC(C3)CC2C4)cc1` (some centres unmarked) [OZ288] was run?
**A.** 1.7 ng/mL (≈ 4.77 nM)

**Q.** What about the IC50 [3, 8] of the same compound?
**A.** 2.7 ng/mL (≈ 7.57 nM)

**Q.** And the “Survival (days) 3 mg/kg SSV po” value [4]?
**A.** 8.0 days

**Q.** And the “Activity (%) 3 mg/kg SSV po” value [4, 9]?
**A.** 82%

**Q.** And the “Survival (days) 10 mg/kg SSV po” value [4]?
**A.** 11.0 days

**Q.** And the “Activity (%) 10 mg/kg SSV po” value [4, 10]?
**A.** 99.96%

**Q.** Which IC50 ([2]; K1, 72 h, read-out: IC50 (ng/ml) K1, chloroquine-resistant K1 strain, 72 h incubation) does the source give for `NCCOc1ccc([C@H]2CC[C@]3(CC2)OO[C@]2(O3)C3CC4CC(C3)CC2C4)cc1` [OZ323] here?
**A.** 0.85 ng/mL (≈ 2.13 nM)

**Q.** And the IC50 ([3]; NF54, 72 h, read-out: IC50 (ng/ml) NF54, chloroquine-sensitive NF54 strain, 72 h incubation)?
**A.** 1.1 ng/mL (≈ 2.75 nM)

**Q.** And the “Survival (days) 3 mg/kg SSV po” value [4]?
**A.** 9.2 days

**Q.** And the “Activity (%) 3 mg/kg SSV po” value [4, 9]?
**A.** 99.92%

**Q.** What about the “Survival (days) 10 mg/kg SSV po” value [4] of the same compound?
**A.** 15.6 days

**Q.** And the “Activity (%) 10 mg/kg SSV po” value [4, 10]?
**A.** 99.98%

**Q.** `O=C1c2ccccc2C(=O)N1CC[C@H]1CC[C@]2(CC1)OOC1(O2)C2CC3CC(C2)CC1C3` (some centres unmarked) [OZ215] was tested. Which IC50 [2, 7] did it give?
**A.** 6.4 ng/mL (≈ 14.6 nM)

**Q.** What about the IC50 [3, 8] of the same compound?
**A.** 7.3 ng/mL (≈ 16.7 nM)

**Q.** And the “Activity (%) 10 mg/kg SSV po” value ([4]; po, 10 mg/kg)?
**A.** 25%

**Q.** What about the “Activity (%) 10 mg/kg po” value ([4]; po, 10 mg/kg) of the same compound?
**A.** 96%

**Q.** What about the “Activity (%) 10 mg/kg sc” value ([4]; sc, 10 mg/kg) of the same compound?
**A.** 39%

**Q.** And the “Survival (days) 10 mg/kg po” value [4]?
**A.** 9.7 days

**Q.** And the “Survival (days) 10 mg/kg SSV po” value [4]?
**A.** 6.3 days

**Q.** And the “Survival (days) 10 mg/kg sc” value [4]?
**A.** 7.0 days

**Q.** What does the source list for `O=C(O)C1(C(=O)O)COC2(CCC3(CC2)OOC2(O3)C3CC4CC(C3)CC2C4)OC1` (centres unmarked) [OZ122, Adamantane-2-spiro-3′-11′,11′-dicarboxy-1′,2′,4′,9′,13′-pentaoxadispiro[4.2.5.2]pentadecane]?
**A.** IC50 [2, 7]: > 100 ng/mL; IC50 [3, 8]: > 100 ng/mL; Survival (days) 10 mg/kg po [4]: 5.7 days; Activity (%) 10 mg/kg po [4, 11]: 10%; Survival (days) 10 mg/kg SSV po [4]: 5.3 days; Activity (%) 10 mg/kg SSV po [4, 10]: 3%; Survival (days) 10 mg/kg sc [4]: 5.0 days; Activity (%) 10 mg/kg sc [4, 12]: 0%

Source: patent publication US6825230B2, “Spiro and dispiro 1,2,4-trixolane antimalarials” (Medicines for Malaria Venture MMV, priority 2002, dated 2004)
